112 compounds from the OPERA property sets (Mansouri et al. 2018) can be followed below.

Usually logP stands for a log measure of how a compound divides between an organic and an aqueous phase. Low values mean lower lipophilicity, high ones higher lipophilicity.

For `COc1cc(S(C)=O)ccc1-c1nc2ncccc2[nH]1` (configuration not stated), the logP is 1.18. On to `O=C1C[N+]([O-])=C(c2ccccc2)c2cc(Cl)ccc2N1`, for which the logP was 1.49. Compound `FC(F)(c1ccccc1)C(F)(F)c1ccccc1` registered a logP of 5. With `COC(=O)C1C(C=C2CCSC2=O)C1(C)C` (configuration not stated) the figure was 2.33. With `CCOC(=O)Cn1nc2ccccc2n1` the figure was 1.85; with `CCNc1ccc(C(=O)OCCN(C)C)cc1`, 2.62. As to `Nc1ncnc2c1ncn2[C@H]1CC[C@@H](CO)O1`, the logP is -0.25. For the compound `O=C(c1ccc(F)cc1F)c1ccc2n1CCC2C(=O)O` (configuration not stated), the logP stood at 2.59. With `OCc1cc(Cl)ccc1O` the figure was 1.44; with `c1ccc(-c2cnc3ccccc3n2)cc1`, 3.48; with `O=C1c2ccccc2C(=O)C1c1ccc(Br)cc1`, 3.76. For the compound `CCCC(=O)OCC(=O)C1(O)CCC2C3CCC4=CC(=O)CCC4(C)C3C(O)CC21C` (configuration not stated), the logP worked out at 2.91. Regarding `O=[N+]([O-])c1cnc(N=C2NCCO2)s1`, the logP was found to be 0.57. `CCCCCCC(C)(C)c1cc(O)c2c(c1)OC(C)(C)C1CCC(C=O)=CC21` (configuration not stated) returned a log partition coefficient (logP) of 8.03. With `Cc1cccc(C)c1NC(=O)CCCCN`, the logP was 1.02. `O=C(O)c1cc(-c2ccc(F)cc2F)ccc1O` displayed a logP of 4.44.

As for `CCOc1cc(Cc2cnc(N)nc2N)ccc1OC`, the lipophilicity (logP) came to 1.2. With `Fc1ccc(Cl)c(N=C2NCCN2)c1` the figure was 1.52. The compound `CCN1CC(C(O)C(CC2CCCCC2)NC(=O)C(Cc2cnc[nH]2)NC(=O)C(CC(=O)N(C)CCOC)Cc2ccccc2)OC1=O` (configuration not stated) returned a log partition coefficient (logP) of 2.45.

Regarding `CC(=O)Nc1nc(NCC(O)CO)c(Cl)nc1[N+](=O)[O-]` (configuration not stated), the lipophilicity (logP) is 0. `CCCCc1ccc(CC(=O)O)cc1`: the logP turned out to be 3.25. With `CC(=O)OC1CC2C(CCC3CC(OC4CC(O)C(OC5CC(O)C(OC6CC(O)C(O)C(C)O6)C(C)O5)C(C)O4)CCC32C)C2(O)CCC(C3=CC(=O)OC3)C12C` (configuration not stated) the figure was 2.29. `CCC(C(=O)OCc1ccccc1)C(COC(=O)c1cccnc1)Cc1cncn1C` (configuration not stated): the log partition coefficient (logP) worked out at 3.05.

The compound `CCCCCc1ccc(CC(=O)O)cc1` displayed a logP of 3.75. With `Nc1ncc(Cc2cc3c(cc2Br)OCO3)c(N)n1`, the logP is 2.48. The compound `O=C(CN1CCOCC1)NCc1ccccc1` came in with a lipophilicity (logP) of 0.67.

Take `Cc1ccc(N(C)C)cc1`: the logP was determined as 2.81. As for `Cc1cc(C)cc(NS(=O)(=O)c2ccc(N)cc2)c1`, the logP stood at 2.52. With `CO[C@@]1(NC(=O)CSCC#N)C(=O)N2C(C(=O)O)=C(CSc3nnnn3C)CS[C@@H]21` the figure was -0.6; with `Nc1nc2c(ncn2C2OC(CO)C(O)C2O)c(=O)[nH]1` (configuration not stated), -1.9; with `C[C@H]1O[C@@H](O[C@H]2CC[C@@]3(C)[C@H](CC[C@@H]4[C@@H]3CC[C@]3(C)[C@@H](C5=CC(=O)OC5)[C@@H](O)C[C@]43O)C2)C[C@H](O)[C@@H]1O`, 1.77. Regarding `CCC(C(=O)NC(N)=O)(C(=O)OC)c1ccccc1` (configuration not stated), the logP was 1.58. The logP values of the last two compounds are within 0.2 log units of each other.

In turn, `OC1c2ccccc2C2CCCCC2C1O` (configuration not stated) registered a logP of 2.47.

Take `Cc1cccc(C)c1NC(=O)CCC(C)N` (configuration not stated): the logP amounted to 1.08. In the case of `O=C(O)c1ccc(Cl)cc1Nc1ccc(I)cc1`, the logP was 5.37. Consider `Oc1ccc2c(c1)CCCC2`, for which the logP stood at 2.9.

Compound `C=C(C)C(=O)OCCCOC(=O)C(=C)C` showed a log partition coefficient (logP) of 1.86. With `C#CCC(O)(CC#C)c1cccnc1`, the lipophilicity (logP) was found to be 1.29. Regarding `OCc1ccccc1C(c1ccc(O)cc1)c1ccc(O)cc1`, the log partition coefficient (logP) is 3.27. With `CCCCCCC(C)=NNC(=N)N`, the logP came to 2.08. Compound `O=C1C(Nc2ccccc2)=C(S(=O)(=O)c2ccccc2)C(=O)c2ccccc21` yielded a logP of 3.38. In the case of `CCCCCCCC1CC(C(=O)Nc2c(C(C)C)cccc2C(C)C)C(=O)O1` (configuration not stated), the logP amounted to 4.72.

For `COc1cccc2c1C(=O)c1c(O)c3c(c(O)c1C2=O)C[C@@](O)(C(C)=O)C[C@@H]3O[C@H]1C[C@H](N)[C@H](O)[C@H](C)O1`, the logP worked out at 1.83. As to `O=C(O)Cc1ccc(C2CCCC2)cc1`, the logP is 3.44. The compound `c1ccc(C2CCCN2)cc1` (configuration not stated) had a logP of 1.89. As to `C=C1C(=O)OC2CC3(C)CCCC(=C)C3CC12` (configuration not stated), the logP came out at 3.42. Consider `CCN(CC)C(=O)c1cccc(C)c1`, for which the log partition coefficient (logP) was 2.18. The compound `COC(=O)/C=C/Oc1ccccc1` came in with a logP of 2.68. With `OC(Cn1ccnc1)(c1ccc(-c2cccnc2)cc1)c1ccc(F)cc1F` (configuration not stated) the figure was 3.31; with `CC(=O)OCCN1C(=O)C(OC(C)=O)N=C(c2ccccc2)c2cc(Cl)ccc21` (configuration not stated), 2.74. For `CCS[C@@H]1O[C@H](CO)[C@H](O)[C@H](O)[C@H]1O`, the logP was -1.51. For `Cc1ccc(C(=O)c2ccc(CC(=O)O)n2C)cc1`, the logP was 2.79. `C=CCC(NC(=O)C(Cc1ccccc1)NS(=O)(=O)N1CCOCC1)C(=O)NC(COC(F)(F)C(=O)NCCN1CCOCC1)CC1CCCCC1` (configuration not stated) showed a logP of 3.17. Take `CC(C)CCOC(=O)c1ccccc1`: the logP was 4.15.

The compound `COc1cc(Cc2cnc(N)nc2N)ccc1N(C)C` displayed a logP of 1.87. For `NS(=O)(=O)c1ccc(Cl)c(Cl)c1`, the logP was 1.44. In turn, `O=CC1=CC=C2C(C(=O)O)CCN2c2cc(Br)ccc21` (configuration not stated) showed a logP of 3.6. Compound `COc1cc(CCN)cc(OC)c1OCc1ccccc1` gave a logP of 2.4. For `CCCCCCCCCCCC(=O)CC(=O)Nc1c(OC)cc(OC)cc1OC`, the log partition coefficient (logP) came to 5.02. Compound `CCOC(=O)C(CC)(CC)C(=O)NC(N)=O` gave a logP of 1.45. With `C=CCC(NC(=O)C(Cc1ccccc1)NS(=O)(=O)N1CCN(C)CC1)C(=O)NC(CC1CCCCC1)C(=O)C(F)(F)C(=O)NCCN1CCOCC1` (configuration not stated) the figure was 2.73. Take `CCCOc1ccc(Cc2cnc(N)nc2N)cc1OC`: the logP was 2.02.

The compound `Cc1ccccc1C(OCCN(C)C)c1ccccc1` (configuration not stated) showed a lipophilicity (logP) of 3.77. With `CCC(N)C(=O)Nc1c(C)cccc1C` (configuration not stated) the figure was 0.84; with `Clc1cccc(Br)c1N=C1NCCN1`, 1.73. As to `Cc1c2ccccc2cc2ccccc12`, the logP came out at 5.07.

For `CNC1CC2CC1c1ccccc12` (configuration not stated), the logP amounted to 2.32. In turn, `Clc1ccc(-c2cccc(Cl)c2)cc1` yielded a logP of 5.15. In turn, `C=C(C)C(=O)OCC(F)(F)F` registered a logP of 1.56. Regarding `CC1CCCC(c2ccccc2)(N2CCCCC2)C1` (configuration not stated), the logP was 5.86. `O=C(O)c1cccnc1` returned a logP of 0.36. With `NS(=O)(=O)c1nc2c(Cl)cc(Cl)cc2s1`, the logP is 2.6. With `Cc1cccc(C(=O)c2ccc3n2CCC3C(=O)O)c1` (configuration not stated) the figure was 3.23; with `CCNCc1ccccc1`, 1.82; with `O=C(O)CCn1ccc2ccccc21`, 2.2.

As to `COCc1ccc(C#N)cc1`, the logP amounted to 1.23. With `CCC1(c2ccccc2)C(=O)NC(=O)N=C1OC(C)C` (configuration not stated) the figure was 2.22; with `COc1cccc2c1C(=O)c1c(O)c3c(c(O)c1C2=O)CC(O)(C(C)=O)CC3OC1CC(N2CCOCC2)C(O)C(C)O1` (configuration not stated), 2.31. `O=C(O)Cc1ccc2c(c1)C(=O)c1ccccc1CS2`: the logP was 2.97.

Consider `O=C1C(N2CCN(CCO)CC2)=C(N2CC2)C(=O)C(N2CCN(CCO)CC2)=C1N1CC1`, for which the logP was -0.77. Consider `CCOC(=O)c1ccc(S(N)(=O)=O)cc1`, for which the lipophilicity (logP) was determined as 1.17.

Take `C=C(C)C(=O)OCC(C)(C)COC(=O)C(=C)C`: the logP stood at 2.79. `CCN1CC(C(O)C(CC2CCCCC2)NC(=O)C(Cc2cnc[nH]2)NC(=O)C(Cc2ccc(OC)cc2)NC(=O)N(C)CC(O)CO)OC1=O` (configuration not stated): the logP came out at 1.42. In turn, `CN1CC=C(c2cccs2)CC1` registered a lipophilicity (logP) of 2.51.

`OC(Cn1ccnc1)(c1ccc(Cl)cc1)c1ccc(-c2ccncc2)cc1` (configuration not stated) showed a logP of 3.27. The compound `CCOC(=O)C=COc1ccccc1` yielded a logP of 3.18. For `COC(=O)CCC(C)=O`, the logP was -0.13. For the compound `CNCCCN1c2ccccc2Sc2ccc(Cl)cc21`, the logP turned out to be 4.94.

With `CCOC(=O)c1cnc(-c2ccc(OCC(O)CNCCc3ccc(OC)c(OC)c3)cc2)[nH]1` (configuration not stated), the logP came to 2.3. With `c1ccc(-c2cc3ccccc3cn2)nc1` the figure was 3.05. `CC(=O)C(C)CN1CCCCC1` (configuration not stated) yielded a logP of 1.28.

In turn, `CN(C)c1ccc(C(O)(Cn2ccnc2)c2ccc(-c3ccncc3)cc2)cc1` (configuration not stated) returned a logP of 3.29.

`CNC(=O)Oc1ccc(N(C)C)c(C)c1` yielded a logP of 1.9.

On to `Cc1cccc(C)c1NC(=O)CCCCCN`, for which the logP was found to be 1.29.

For the compound `[N-]=[N+]=N[C@H]1C[C@H](n2ccc(N)nc2=O)O[C@@H]1CO`, the logP was -0.7. In the case of `COc1ccc(C2C(=O)c3ccccc3C2=O)cc1`, the logP is 2.88. As to `CCC(=O)OCOC(=O)c1cc(S(N)(=O)=O)c(Cl)cc1NCc1ccco1`, the logP was 2.9. For the compound `CCCOc1cc(Br)c(Cc2cnc(N)nc2N)cc1OC`, the logP was determined as 2.84. The logP values of the last two compounds are within 0.2 log units of each other. As for `COC1CC2(C)C(O)C(F)CC2C2CCc3cc(O)ccc3C12` (configuration not stated), the logP was found to be 2.35. Turning to `O=C(O)C=Cc1ccc2c(c1)OCO2`, the logP amounted to 2.59. Compound `c1ccc2c(c1)ccc1cccnc12` displayed a logP of 3.43.

As to `Cc1cccc(C)c1N(CCCN1CCCCC1)C(=O)Cc1ccccc1`, the logP came to 5.28. `Cc1[nH]c2ccccc2c1C` registered a logP of 3.05.

In the case of `CC1=C(C(=O)Nc2ccccc2)S(=O)CCO1` (configuration not stated), the logP was determined as 0.64. With `COCC(O)Cn1cc(Br)nc1[N+](=O)[O-]` (configuration not stated) the figure was 0.46; with `CC1OC(OC2C(O)CC(OC3C(O)CC(OC4CCC5(C)C(CCC6C5CCC5(C)C(C7=CC(=O)OC7)C(O)CC65O)C4)OC3C)OC2C)CC(O)C1O` (configuration not stated), 1.67.

As for `CCCn1c(=O)[nH]c(=O)c2[nH]cnc21`, the logP was determined as 0.33. The compound `CCC1OC(=O)C(C)C(OC2CC(C)(OC)C(OC=O)C(C)O2)C(C)C(OC2OC(C)CC(N(C)C)C2O)C(C)(O)CC(C)C(=O)C(C)C(O)C1(C)O` (configuration not stated) gave a logP of 2.64. Consider `CCc1cccc(C2C(=O)c3ccccc3C2=O)c1`, for which the logP came out at 3.92. As for `Cc1cc2occc2c2oc(=O)ccc12`, the lipophilicity (logP) was determined as 2.41. With `CCC(C(=O)OCc1ccc(C)cc1)C(COC(=O)C(C)(C)C)Cc1cncn1C` (configuration not stated) the figure was 4.55; with `CCCCCC(CCC)C(=O)O` (configuration not stated), 3.2.
